Among the data in PubChem BioAssay (NCI) are TGI values, retold here.

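Assay format: 96-well plates, 48-hour exposure. TGI marks complete inhibition of growth.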

Holding throughout (test): growth of human tumour cells (NCI), 48 h
The test system of assay [1] is HT29 colon.
The test system of assay [2] is SW-620 colon.
In assay [3] the test system is SR leukemia.
Assay [4] deals with CAKI-1 renal.
Assay [5] deals with PC-3 prostate.

In the case of `COP(=N[Si](C)(C)C)(OC)OC`, the TGI in assay [1], in assay [2], in assay [3], in assay [4] and in assay [5] was over 100 µM throughout.
As to `Cc1cc(Cl)ccc1NC(=O)/C(Cc1nc2ccc(C(=O)c3ccccc3)cc2[nH]c1=O)=N/NC(=O)c1ccncc1`, the TGI in assay [1], in assay [2], in assay [3], in assay [4] and in assay [5] was over 100 µM throughout.
As for `NS(=O)(=O)c1ccc(NC(=S)/N=C/c2c(O)c3ccccc3[nH]c2=O)cc1`, the TGI in assay [1], in assay [2], in assay [3], in assay [4] and in assay [5] was over 100 µM throughout.
As to `N#CCN(Cc1ccccc1)[C@H]1CCC[C@]1(O)/C=C/c1ccc2c(c1)OCO2`, the TGI in assay [1] is 29.8 µM; in assay [2], 43.3 µM; in assay [3] it was 40.2 µM; in assay [4], over 100 µM; in assay [5] it was 35.7 µM.
For `c1ccc2nc3c(nc2c1)sc1nc2ccccc2n13`, the TGI in assay [1], in assay [3], in assay [4] and in assay [5] was over 100 µM in each case.
Consider `Cc1ccc(/C(O)=C/c2nc3ccccc3nc2NC23CC4CC(CC(C4)C2)C3)cc1`, for which the TGI in assay [1], in assay [2], in assay [3], in assay [4] and in assay [5] was over 10 µM each time.
For the compound `Cc1cc2c(c(C=Nc3ccc(N(C)C)cc3)c1)OC1(C=C2)Oc2ccccc2C(=O)N1C` (stereo not drawn), the TGI in assay [1] is 57.2 µM; in assay [2] it was 35.6 µM; in assay [3], over 100 µM; in assay [4], 28 µM; in assay [5] it was over 52.5 µM.
On the same counts, the results for `O=C1c2scc(-c3ccc(F)cc3)c2-n2cccc21` are over 100 µM, over 100 µM, 44 µM, over 100 µM and over 100 µM.
Take `CSC1=C(C)S/C(=C\c2ccc(/C=C3\SC(C)=C(SC)S3)cc2)S1`: the TGI in assay [1], in assay [2], in assay [3], in assay [4] and in assay [5] was over 100 µM throughout.
Consider `CC(=O)O[C@H]1CC[C@@]2(C)C(=CC[C@H]3[C@@H]4C[C@H](N5CCN(C)CC5)[C@H](OC(C)=O)[C@@]4(C)CC[C@@H]32)C1`, for which the TGI in assay [1] was 12.8 µM; in assay [2], 29.8 µM; in assay [3], 11.4 µM; in assay [4] it was over 66.5 µM; in assay [5] it was 32.5 µM.
On to `COc1ccccc1/[N+]([O-])=C/c1ccccc1OC(=S)S`, for which the TGI in assay [1], in assay [2], in assay [3], in assay [4] and in assay [5] was over 100 µM in each case.
Take `Nc1nc([O-])c([I+]c2ccccc2)c(=O)[nH]1`: the TGI in assay [1], in assay [2], in assay [3], in assay [4] and in assay [5] was over 100 µM in each case.
Turning to `COC(=O)/N=[N+](\[O-])C(c1ccc(Cl)cc1)c1ccc(Cl)cc1`, the TGI in assay [1] was over 100 µM; in assay [2], over 100 µM; in assay [3] it was over 100 µM; in assay [4] it was 34.5 µM; in assay [5], over 100 µM.
As for `CN(C(=O)C12C3C4C1C1C2C3C41C(=O)O)C(C)(C)C` (stereo not drawn), the TGI in assay [1], in assay [2], in assay [3], in assay [4] and in assay [5] was over 100 µM in each case.
Take `COc1ccc(-c2c(C#N)c(N)n(C3OCC(O)C(O)C3O)c(=S)c2C#N)cc1` (stereo not drawn): the TGI in assay [1], in assay [2], in assay [3], in assay [4] and in assay [5] was over 100 µM each time.
For the compound `COc1ccc(C[C@H]2NC[C@H](OC(C)=O)[C@H]2OC(C)=O)cc1`, the TGI in assay [1] was found to be 1.04 µM; in assay [2], 1.14 µM; in assay [3], 3.45 µM; in assay [4] it was 0.544 µM; in assay [5] it was 1.08 µM.
Turning to `CCOC(=O)CCN1C(=O)c2ccc(NC(=O)C(=O)O)cc2S1(=O)=O`, the TGI in assay [1], in assay [2], in assay [3], in assay [4] and in assay [5] was over 100 µM each time.
Regarding `CCOC(=O)NC(OCCN(C)C)(C(F)(F)F)C(F)(F)F`, the TGI in assay [1], in assay [2], in assay [3], in assay [4] and in assay [5] was over 100 µM throughout.
Turning to `CC(C)/C(Cl)=N/OC(NC(=O)Nc1ccc(Cl)c(Cl)c1)(C(F)(F)F)C(F)(F)F`, the TGI in assay [1] was 53.7 µM; in assay [2] it was 3.92 µM; in assay [3] it was over 100 µM; in assay [4], 3.61 µM; in assay [5] it was 27.3 µM.
On the same counts, the results for `CCC(C)C1=C(O)[N+]2([O-])Oc3ccc(-c4c(O)c(O)c(-c5ccc(O)cc5)c(OC(C)=O)c4OC(C)=O)cc3OC2(C(C)CC)C(=O)N1O` (stereo not drawn) are over 50 µM, over 50 µM, over 50 µM, over 50 µM and over 50 µM.
On the same counts, the results for `COc1ccc2c(c1)nc1n2C(c2c(F)cccc2F)SC1` (stereo not drawn) are over 100 µM, over 100 µM, over 100 µM, over 100 µM and over 100 µM.
The matching figures for `O=S(=O)(O)c1ccc(N=Nc2c(O)ccc3ccccc23)cc1`: over 100 µM, over 100 µM, over 100 µM, over 100 µM and over 100 µM.
`Cc1ccc(-n2nnc3c(NNc4ccccc4)n[nH]c(=O)c32)cc1`: the TGI in assay [1], in assay [3], in assay [4] and in assay [5] was over 100 µM in each case.
In the case of `O=C(/C=C/c1ccsc1)c1cccs1`, the TGI in assay [1] was over 100 µM; in assay [2] it was 32.3 µM; in assay [3], over 10 µM; in assay [4], over 100 µM; in assay [5], over 100 µM.
Take `COc1ccc(OC)c2sc(N3C(=O)/C(=C/c4ccc(N(C)C)cc4)N=C3c3ccccc3)nc12`: the TGI in assay [1] is over 100 µM; in assay [2], over 100 µM; in assay [3], 74.6 µM; in assay [4], over 100 µM; in assay [5], 81.2 µM.
With `N#Cc1c(-c2cccc(Br)c2)cc(-c2ccc(Cl)cc2)nc1N`, the TGI in assay [1] was 39.2 µM; in assay [2], 36 µM; in assay [3], 46.3 µM; in assay [4] it was 79.1 µM; in assay [5] it was 71.3 µM.
Consider `COc1ccc2c(c1OC)C(Br)CCC(Br)(Br)C2=O` (stereo not drawn), for which the TGI came to 17.6 µM in assay [1]; 6.61 µM in assay [2]; 4.22 µM in assay [3]; 3.24 µM in assay [4]; 24.2 µM in assay [5].
The matching figures for `N#Cc1c(Cl)cccc1Oc1ccc(S(=O)(=O)/N=C(\NO)Nc2ccc(Cl)cc2)cc1`: 31.5 µM, 34.8 µM, 78.2 µM, 29.2 µM and 30.6 µM.
As to `CCOC(=O)c1nc2cc(F)c(F)cc2nc1NCc1cc(OC)c(OC)c(OC)c1`, the TGI in assay [1], in assay [2], in assay [3], in assay [4] and in assay [5] was over 100 µM throughout.
For the compound `CCOC(=O)C(C)c1nc2cc(F)c(N3CCOCC3)cc2[nH]c1=O` (stereo not drawn), the TGI in assay [1], in assay [2], in assay [3], in assay [4] and in assay [5] was over 100 µM each time.
Regarding `Cc1cccc2c1CC(C1OC(=O)c3c(C)cccc31)C2=O` (stereo not drawn), the TGI in assay [1], in assay [2], in assay [3], in assay [4] and in assay [5] was over 100 µM each time.
Regarding `O=C1CSC2(CC(/C=C/c3cccc(Br)c3)=NN2c2cccc(S(=O)(=O)O)c2)N1c1nc2ccccc2s1` (stereo not drawn), the TGI in assay [1], in assay [2], in assay [3], in assay [4] and in assay [5] was over 100 µM in each case.
For the compound `Cc1nc(C)c(N2CCN(C(=O)NC(CCC(=O)O)C(=O)O)CC2)c(=O)[nH]1` (stereo not drawn), the TGI in assay [1], in assay [2], in assay [3], in assay [4] and in assay [5] was over 100 µM in each case.
Regarding `CN(O)C(=O)c1ccc(OCc2cccc(Cl)c2)cc1`, the TGI in assay [1] is over 100 µM; in assay [2], over 100 µM; in assay [3], over 72.4 µM; in assay [4], over 92.6 µM; in assay [5], over 100 µM.
